Results from US6444878B1, “Method of plant selection using glucosamine-6-phosphate deaminase” (Danisco A/S, priority 1997, dated 2002).
Counter-ions that a name gives are not always drawn. Like-named read-outs stand apart in the source and are kept apart here.

What was measured:
natural plant cells = conditions: formed from milli-molar amounts of glucosamine; cited from earlier work
[1] = tested on: glucosamine-6-phosphate deaminase encoded by nagB; experiment: Conversion of GA6P to F6P by glucosamine-6-phosphate deaminase, allosteric effect; format: biochemical, E. coli; conditions: FIG. 3
Text: One aspect of the selection method of the present invention provides an additional advantageous feature. […] This surprising finding is in accordance with studies done with E. coli (Calcagno, M, et al (1984) Biochim Biophys Acta 787: 165-173). Thus, should any glucosamine be metabolised to NAGA and in turn eventually to NAG6P then that NAG6P would ensure conversion of GA6P to F6P by the enzyme glucosamine-6-phosphate deaminase or at least aid the conversion step. This is an advantageous feature of the highly preferred selection method of the present invention.

[2] = tested on: non-transgenic guar cotyledons; format: cell-based; conditions: glucosamine 3.0 g/l
Procedure: In order to establish the toxicity of glucosamine to guar explants, a dose-response curve with glucosamine concentrations ranging from 0 to 5.0 g/l was made using non-transgenic guar cotyledons as explants. The effect on shoot formation on the explants was used to determine the toxicity of glucosamine (FIG. 20).
The guar explants were obtained as follows. Guar seeds were sterilized in a 2.5% sodium hypochlorite solution at pH 7.0 added two drops of Tween 80 pr 100 ml solution. The seeds were stirred for 25 minutes in this solution and then washed five times with sterile water. Seeds were sown on germination medium (4.43 g/l MSMO (Sigma M6899), 20 g/l sucrose, 8.0 g/l agar, pH adjusted to 5.8 with KOH) and placed at 25° C. for 11-13 days at a 12 h/12 h day/night regime.
The cotyledons including about 2 mm of hypocotyl were excised from the seedlings and were used as explants for this experiment as well as for transformation experiments. The cotyledons were placed on selection medium containing various concentrations of glucosamine.
0-5 g/l D-glucosamine, HCl (according to the experiment)
After three weeks, the percentage of explants forming shoots on the various glucosamine containing media were determined and the results are given in FIG. 20.
In order to be able to find appropriate selection conditions, some factors affecting the toxicity of glucosamine were studied. Initially, sucrose was tested at various concentrations (5-40 g/l) in the selection medium. […] It is expected that other saccharides such glucose, fructose, maltose, mannose etc may also affect the effect of glucosamine.
Next, the effect of the concentration of the Gamborg B5 salts in the selection medium was tested in the presence of glucosamine (3.0 g/l). We investigated the use of these salts with a view to decreasing the carbon content of the medium.

[3] = tested on: guar cotyledonary explants transformed with nagB; experiment: Selection of transgenic guar shoots on glucosamine selection medium, GUS histochemical assay; format: cell-based, Cyamopsis tetragonoloba
Procedure: Transformation of guar cotyledonary explants was performed according to Joersbo and Okkels (PCT/DK95/00221) using Agrobacterium tumefaciens LBA4404 harbouring the plasmid shown in FIG. 10. Selection of transgenic shoots was accomplished using the above-mentioned selection medium with various concentrations of glucosamine, sucrose and Garnborg B5 salts. After four weeks the shoots were harvested and all explants were transferred to fresh selection medium (same composition) and after another four weeks of selection the last shoots were harvested. After harvest, the shoots were analysed for β-glucuronidase (GUS) activity using the histochemical assay (Jefferson et al, 1987, EMBO J 6: 3901-3907).

[4] = tested on: Solanum tuberosum cv Saturna explants; format: cell-based; conditions: for Number of transformed areas per explant / Number of transgenic shoots / Transformation frequency (number transgenic shoots/started explants) / Transformation frequency (%) (Number transgenic shoots/started explants): sucrose 7.5 g/l
Procedure: The disarmed Agrobacterium tumefaciens strain LBA 4404, containing the helper vir plasmid pRAL4404 (Hoekema et al, 1983 Nature 303 pp 179-180), was cultured on YMB agar (K2HPO4.3H2O 660 mg l^−1, MgSO4 200 mg l^−1, NaCl 100 mg l^−1, mannitol 10 g l^−1, yeast extract 400 mg l^−1, 0.8% w/v agar, pH 7.0) containing 100 mg l^−1 rifampicin and 500 mg l^−1 streptomycin sulphate. Transformation with pVICTOR IV GNG E35S nagB IV2 or pVICTOR IV GNG rbc nagB IV2 or pVICTOR IV GNG E35 S nagB was accomplished using the freeze-thaw method of Holters et al (1978 Mol Gen Genet 163 181-187) and transformants were selected on YMB agar containing 100 mg l^−1 rifampicin and 500 mg l^−1 streptomycin, and 50 mg l^−1 gentamycin sulphate. Transformation with a control construct lacking the nagB gene was performed in the same manner.
Shoot cultures of Solanum tuberosum cv Saturna were maintained on LS agar containing Murashige Skoog basal salts (Sigma M6899) (Murashige and Skoog, 1965, Physiol Plant 15 473-497) with 2 μM silver thiosulphate, and nutrients and vitamins as described by Linsmaier and Skoog (1965 Physiol Plant 18 100-127). Cultures were maintained at 25° C. with a 16 h daily photoperiod. After approximately 40 days, subculturing was performed during and the shoots cut into mononodal segments of approximately 8 mm length.
Shoot cultures of approximately 40 days maturity (5-6 cm height) were cut into 8 mm internodal segments and/or leaves were cut off and wounded by making 24 small cuts over the midrib of the leaf. These were then placed into liquid LS-medium containing Agrobacterium tumefaciens transformed with pVICTOR IV GNG E35 S nagB IV2 or pVICTOR IV GNG rbc nagB IV2 or pVICTOR IV GNG E35S nagB (A660=0.5, pathlength 1 cm). Following incubation at room temperature for 30 minutes, the segments were dried by blotting on to sterile filter paper and transferred to LS agar (0.8% w/v containing 2 mg l^−1 2,4-D and 500 μg l^−1 trans-zeatin. The explants were covered with filter paper, moistened with LS medium, and covered with a cloth for three days at 25° C. Following this treatment, the segments can be washed with liquid LS medium containing 800 mg l^−1 carbenicillin, and then transferred on to LS agar (0.8% w/v) containing 1 mg l^−1 trans-zeatin, […] gibberellic acid (GA3), with sucrose (eg 7.5 g l^−1). This agar can optionally contain glucosamine (eg 2.5 g l^−1). The segments were sub-cultured to fresh substrate each […]. In 3 to 4 weeks, shoots develop from the segments and the formation of new shoots continued for 3-4 months.
The transgenic plants may be verified by performing a GUS assay on the cointroduced β-glucuronidase gene according to Hodal, L. et al. (Pl. Sci. (1992), 87: 115-122).

[5] = second table, glucosamine 1 g/l
[6] = second table, glucosamine 2.5 g/l
[7] = second table, glucosamine 5 g/l
[8] = second table, glucosamine 7.5 g/l
[9] = second table, glucosamine 10 g/l
[10] = glucosamine 2 g/l, NH4/NO3 1298 g/l
[11] = glucosamine 2.5 g/l, NH4/NO3 1189 g/l
[12] = glucosamine 3 g/l, NH4/NO3 1093 g/l

## N[C@H]1C(O)O[C@H](COP(=O)(O)O)[C@@H](O)[C@@H]1O (stereo partly drawn) [GA6P, glucosamine-6-phosphate]
Natural plant cells
  Toxicity to natural plant cells: toxic to natural plant cells

## CC(=O)N[C@H]1C(O)O[C@H](COP(=O)(O)O)[C@@H](O)[C@@H]1O (stereo partly drawn) [NAG6P, N-acetyl glucosamine 6-phosphate]
[1]
  Effect on the conversion of GA6P to F6P by glucosamine-6-phosphate deaminase: positive effect (an allosteric effect)

## N[C@H]1C(O)O[C@H](CO)[C@@H](O)[C@@H]1O (stereo partly drawn) [glucosamine, D-glucosamine, HCl]
[2]; Gamborg B5 salts in selection medium 1.6 g/l
  Shoot formation on guar explants (%): 6.2%
[2]; Gamborg B5 salts in selection medium 2.4 g/l
  Shoot formation on guar explants (%): 9.1%
[2]; Gamborg B5 salts in selection medium 3.2 g/l
  Shoot formation on guar explants (%): 17.4%
[3]; sucrose 10 g/l, glucosamine 2.5 g/l, B5-salts 3.2 g/l
  No of GUS-positive shoots: 2
[3]; sucrose 20 g/l, glucosamine 2.5 g/l, B5-salts 2.4 g/l
  No of GUS-positive shoots: 1
[3]; sucrose 20 g/l, glucosamine 3.0 g/l, B5-salts 2.4 g/l
  No of GUS-positive shoots: 1
[4]
  Effect of NH4NO3 content on toxicity of glucosamine: lowering the content of NH4NO3 makes the glucosamine less toxic
[4]; [5]
  Number of transformed areas per explant: 3.8
  Number of transgenic shoots: 1
  Transformation frequency (number transgenic shoots/started explants): 2
[4]; [6]
  Number of transformed areas per explant: 0
  Number of transgenic shoots: 0
  Transformation frequency (number transgenic shoots/started explants): 0
[4]; [7]
  Number of transformed areas per explant: 0
  Number of transgenic shoots: 0
  Transformation frequency (number transgenic shoots/started explants): 0
[4]; [8]
  Number of transformed areas per explant: 0
  Number of transgenic shoots: 0
  Transformation frequency (number transgenic shoots/started explants): 0
[4]; [9]
  Number of transformed areas per explant: 0
  Number of transgenic shoots: 0
  Transformation frequency (number transgenic shoots/started explants): 0
[4]; glucosamine 2 g/l
  Number of transformed areas per explant: 0
  Transformation frequency (%) (Number transgenic shoots/started explants): 0%
[4]; [10]
  Number of transformed areas per explant: 0.025
  Number of transgenic shoots: 0
  Transformation frequency (%) (Number transgenic shoots/started explants): 0%
[4]; glucosamine 2 g/l, NH4/NO3 1650 g/l
  Number of transgenic shoots: 0
[4]; glucosamine 2.5 g/l
  Number of transformed areas per explant: 0
  Transformation frequency (%) (Number transgenic shoots/started explants): 0%
[4]; [11]
  Number of transformed areas per explant: 0
  Number of transgenic shoots: 0
  Transformation frequency (%) (Number transgenic shoots/started explants): 0%
[4]; glucosamine 2.5 g/l, NH4/NO3 1650 g/l
  Number of transgenic shoots: 0
[4]; glucosamine 3 g/l
  Number of transformed areas per explant: 0
  Transformation frequency (%) (Number transgenic shoots/started explants): 0%
[4]; [12]
  Number of transformed areas per explant: 0
  Number of transgenic shoots: 0
  Transformation frequency (%) (Number transgenic shoots/started explants): 0%
[4]; glucosamine 3 g/l, NH4/NO3 1650 g/l
  Number of transgenic shoots: 0
